Data taken from ChEMBL document CHEMBL2073917, “Polymethoxylated flavones in orange juice are inhibitors of P-glycoprotein but not cytochrome P450 3A4” (J Pharmacol Exp Ther, 2000).
One block for each compound: values may come before it.

What was measured:
Format in all cases: functional, cell-based
Conditions in all cases: pig, llc-pk1, 20 µM
[1] = target: T1, ATP-dependent translocase ABCB1 (Homo sapiens, UniProt P08183); experiment: TP_TRANSPORTER: increase in Vinblastine uptake (Vinblastine: 0.02 uM, HMF: 20 uM) in MDR1-expressing LLC-PK1 cells
T1 sequence (P08183 whole entry): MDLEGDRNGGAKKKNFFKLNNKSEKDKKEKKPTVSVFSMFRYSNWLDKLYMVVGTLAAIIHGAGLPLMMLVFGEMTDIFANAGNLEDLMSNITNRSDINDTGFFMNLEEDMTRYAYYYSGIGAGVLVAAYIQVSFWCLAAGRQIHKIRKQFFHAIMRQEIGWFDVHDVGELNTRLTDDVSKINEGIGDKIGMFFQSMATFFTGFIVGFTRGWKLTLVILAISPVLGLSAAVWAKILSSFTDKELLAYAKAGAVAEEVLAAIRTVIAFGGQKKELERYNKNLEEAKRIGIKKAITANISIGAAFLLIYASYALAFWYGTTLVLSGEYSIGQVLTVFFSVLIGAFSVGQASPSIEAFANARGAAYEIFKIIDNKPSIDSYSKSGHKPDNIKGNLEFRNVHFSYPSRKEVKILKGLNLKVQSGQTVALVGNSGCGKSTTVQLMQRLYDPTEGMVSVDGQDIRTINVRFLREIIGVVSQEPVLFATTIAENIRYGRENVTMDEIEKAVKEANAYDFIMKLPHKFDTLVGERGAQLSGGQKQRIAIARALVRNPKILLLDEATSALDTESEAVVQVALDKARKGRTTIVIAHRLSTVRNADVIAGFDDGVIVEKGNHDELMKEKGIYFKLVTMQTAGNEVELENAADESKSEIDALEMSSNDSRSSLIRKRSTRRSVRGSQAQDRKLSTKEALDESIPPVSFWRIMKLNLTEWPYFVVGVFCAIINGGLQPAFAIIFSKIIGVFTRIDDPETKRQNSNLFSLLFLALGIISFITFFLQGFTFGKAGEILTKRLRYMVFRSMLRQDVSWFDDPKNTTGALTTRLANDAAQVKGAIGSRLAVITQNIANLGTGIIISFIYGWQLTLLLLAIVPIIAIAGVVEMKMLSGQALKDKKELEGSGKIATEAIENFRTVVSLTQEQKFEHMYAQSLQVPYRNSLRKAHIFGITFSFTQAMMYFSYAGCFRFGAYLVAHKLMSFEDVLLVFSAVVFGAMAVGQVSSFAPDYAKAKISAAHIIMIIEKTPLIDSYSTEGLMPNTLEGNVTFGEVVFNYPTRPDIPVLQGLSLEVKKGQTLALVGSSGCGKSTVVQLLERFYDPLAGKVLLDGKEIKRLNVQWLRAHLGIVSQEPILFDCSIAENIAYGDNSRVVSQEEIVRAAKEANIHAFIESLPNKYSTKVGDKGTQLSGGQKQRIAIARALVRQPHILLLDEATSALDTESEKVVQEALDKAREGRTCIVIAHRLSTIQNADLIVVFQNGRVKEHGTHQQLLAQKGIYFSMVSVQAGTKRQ

[2] = target: T1, ATP-dependent translocase ABCB1; experiment: TP_TRANSPORTER: increase in Vinblastine uptake (Vinblastine: 0.02 uM, Nobiletin: 20 uM) in MDR1-expressing LLC-PK1 cells
[3] = target: T1, ATP-dependent translocase ABCB1; experiment: TP_TRANSPORTER: increase in Vinblastine uptake (Vinblastine: 0.02 uM, Tangeretin: 20 uM) in MDR1-expressing LLC-PK1 cells

Activity [1]: 935%
SMILES: COc1ccc(-c2oc3c(OC)c(OC)c(OC)c(OC)c3c(=O)c2OC)cc1OC [3,5,6,7,8,3',4'-HEPTAMETHOXYFLAVONE]

Activity [2]: 604%
SMILES: COc1ccc(-c2cc(=O)c3c(OC)c(OC)c(OC)c(OC)c3o2)cc1OC [NOBILETIN]

Activity [3]: 175%
SMILES: COc1ccc(-c2cc(=O)c3c(OC)c(OC)c(OC)c(OC)c3o2)cc1 [TANGERETIN]
